Measurements published in ChEMBL document CHEMBL1150762, “Homology modeling and site-directed mutagenesis to identify selective inhibitors of endothelin-converting enzyme-2” (J Med Chem, 2008).
pIC50: −log10 of the molar value.

Experiments:
[1] = biological target: T1, Endothelin-converting enzyme 2 (Homo sapiens, UniProt P0DPD6); test: Reduction of recombinant ECE2 activity measured by McaBk2 fluorescent substrate hydrolysis
T1 sequence (P0DPD6 whole entry): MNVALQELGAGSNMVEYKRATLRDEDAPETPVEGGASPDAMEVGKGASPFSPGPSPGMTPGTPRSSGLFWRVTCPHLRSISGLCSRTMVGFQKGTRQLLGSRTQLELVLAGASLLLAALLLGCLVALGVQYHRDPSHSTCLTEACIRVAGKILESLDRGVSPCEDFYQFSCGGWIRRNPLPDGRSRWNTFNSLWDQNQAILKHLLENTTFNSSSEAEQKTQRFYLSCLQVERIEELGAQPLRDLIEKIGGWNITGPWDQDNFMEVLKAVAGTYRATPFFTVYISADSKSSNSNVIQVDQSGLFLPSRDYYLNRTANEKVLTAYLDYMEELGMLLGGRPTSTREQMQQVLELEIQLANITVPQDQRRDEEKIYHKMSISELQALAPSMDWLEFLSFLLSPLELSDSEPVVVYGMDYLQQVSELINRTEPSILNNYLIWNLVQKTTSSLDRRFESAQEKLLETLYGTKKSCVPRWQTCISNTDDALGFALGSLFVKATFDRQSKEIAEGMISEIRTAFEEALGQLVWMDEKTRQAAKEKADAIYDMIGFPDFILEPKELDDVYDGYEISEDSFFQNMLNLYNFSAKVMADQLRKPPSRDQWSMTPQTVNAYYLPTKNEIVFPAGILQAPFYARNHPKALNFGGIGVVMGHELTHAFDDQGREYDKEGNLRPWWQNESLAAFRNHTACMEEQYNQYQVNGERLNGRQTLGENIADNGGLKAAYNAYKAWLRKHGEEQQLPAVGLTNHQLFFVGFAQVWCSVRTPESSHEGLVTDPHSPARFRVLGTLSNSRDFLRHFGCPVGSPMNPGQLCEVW

Neprilysin = Neprilysin (Homo sapiens, UniProt P08473); test: Inhibition of Neprilysin
Neprilysin, sequence (P08473 whole entry): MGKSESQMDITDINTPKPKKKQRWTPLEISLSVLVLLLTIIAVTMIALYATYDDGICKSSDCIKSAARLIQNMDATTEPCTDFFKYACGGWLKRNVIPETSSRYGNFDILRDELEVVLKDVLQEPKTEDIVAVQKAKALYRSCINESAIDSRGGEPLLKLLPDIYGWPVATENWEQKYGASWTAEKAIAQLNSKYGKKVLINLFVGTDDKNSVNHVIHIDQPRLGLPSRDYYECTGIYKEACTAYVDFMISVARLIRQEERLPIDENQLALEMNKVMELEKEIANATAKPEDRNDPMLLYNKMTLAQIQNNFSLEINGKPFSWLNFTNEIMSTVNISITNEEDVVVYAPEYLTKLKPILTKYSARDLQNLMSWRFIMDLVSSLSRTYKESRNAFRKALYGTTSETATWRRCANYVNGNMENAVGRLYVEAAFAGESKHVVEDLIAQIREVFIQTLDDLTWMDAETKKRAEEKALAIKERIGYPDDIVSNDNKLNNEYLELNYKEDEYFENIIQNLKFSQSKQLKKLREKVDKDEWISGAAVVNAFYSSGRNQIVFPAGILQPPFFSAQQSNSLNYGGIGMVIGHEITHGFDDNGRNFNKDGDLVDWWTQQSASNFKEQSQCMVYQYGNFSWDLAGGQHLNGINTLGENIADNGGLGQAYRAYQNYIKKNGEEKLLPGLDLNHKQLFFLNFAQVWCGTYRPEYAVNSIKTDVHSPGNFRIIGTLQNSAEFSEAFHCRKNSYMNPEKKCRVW

[2] = biological target: T2, Endothelin-converting enzyme 2 (Homo sapiens) (UniProt P0DPD6); test: Reduction of recombinant ECE2 activity measured by McaBk2 fluorescent substrate hydrolysis at 10 uM; parameters: scale not given: the % may be the effect or the level left
T2 sequence (whole entry): T1 sequence (P0DPD6 whole entry)

pIC50 [1] | pIC50 (Neprilysin) | Activity [2] [%] | SMILES
4.48 | – | – | COc1cccc(/C=C/c2ccc3cccc(O)c3n2)c1O
5.23 | < 4.30 | > 70 | O=C(Cc1ccc2nccnc2c1)N1CCCC1
5.19 | < 4.00 | > 70 | Oc1ccccc1/C=C/c1ccc2ccccc2n1
5.33 | – | – | Oc1ccccc1/C=C\c1ccc2ccccc2n1
4.45 | – | – | COc1cccc(/C=C/c2ccc3cccc(O)c3n2)c1
